In ChEMBL document CHEMBL3407405 (J Med Chem, 2015) one finds inhibition and EC50 data, which are given here for 13 molecules.

pEC50: −log10 of the molar value. Some results are limits rather than exact numbers.

In assay [1] the target is T1, Estrogen receptor (Homo sapiens) (UniProt P03372).
T1 sequence (whole entry): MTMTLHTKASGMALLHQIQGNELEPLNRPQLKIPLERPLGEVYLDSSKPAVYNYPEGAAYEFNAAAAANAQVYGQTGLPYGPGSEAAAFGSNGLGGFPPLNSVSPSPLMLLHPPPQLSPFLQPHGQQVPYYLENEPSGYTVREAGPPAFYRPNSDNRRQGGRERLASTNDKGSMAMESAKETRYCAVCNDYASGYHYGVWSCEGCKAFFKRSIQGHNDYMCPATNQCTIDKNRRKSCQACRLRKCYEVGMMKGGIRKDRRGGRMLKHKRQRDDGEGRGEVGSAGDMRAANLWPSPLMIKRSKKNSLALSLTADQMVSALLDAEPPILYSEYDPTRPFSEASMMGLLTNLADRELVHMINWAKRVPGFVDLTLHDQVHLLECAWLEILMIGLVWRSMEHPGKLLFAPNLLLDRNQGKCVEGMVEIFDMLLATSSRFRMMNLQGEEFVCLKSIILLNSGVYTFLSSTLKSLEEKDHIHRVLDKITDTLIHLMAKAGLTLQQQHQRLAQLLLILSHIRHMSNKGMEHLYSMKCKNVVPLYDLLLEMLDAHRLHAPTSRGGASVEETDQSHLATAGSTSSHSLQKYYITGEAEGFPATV
Description: Displacement of [3H]estradiol from human full-length ERalpha after 18 to 24 hrs by relative binding affinity/competitive radiometric binding assay relative to estradiol. As to conditions: concentration not given here.

Assay [2] has as its target T2, Estrogen receptor beta (Homo sapiens, UniProt Q92731). The assay is described as follows: Displacement of [3H]estradiol from human full-length ERbeta after 18 to 24 hrs by relative binding affinity/competitive radiometric binding assay relative to estradiol. The note with it: concentration not given here.
Assay [3] has as its target T3, Estrogen receptor (Homo sapiens, UniProt P03372).
T3 sequence (P03372 whole entry): T1 sequence (whole entry)
Description: Agonist activity at human ERalpha expressed in human HEC1 cells assessed as transcriptional activation after 24 hrs by ERE-luciferase reporter gene transfection assay

For assay [4], the target named is T2, Estrogen receptor beta.
Description: Agonist activity at human ERbeta expressed in human HEC1 cells assessed as transcriptional activation after 24 hrs by ERE-luciferase reporter gene transfection assay
Assay [5] concerns the target T3, Estrogen receptor. This is another data set of the same source.
Description: Agonist activity at human ERalpha in human MCF7 cells assessed as progesterone receptor endogenous genes activation after 24 hrs by qPCR
Assay [6] has as its target T2, Estrogen receptor beta. The source holds these as a separate data set.
Description: Agonist activity at human ERbeta in human MCF7 cells assessed as otubain 2 endogenous genes activation after 24 hrs by qPCR

T2 sequence (Q92731 whole entry): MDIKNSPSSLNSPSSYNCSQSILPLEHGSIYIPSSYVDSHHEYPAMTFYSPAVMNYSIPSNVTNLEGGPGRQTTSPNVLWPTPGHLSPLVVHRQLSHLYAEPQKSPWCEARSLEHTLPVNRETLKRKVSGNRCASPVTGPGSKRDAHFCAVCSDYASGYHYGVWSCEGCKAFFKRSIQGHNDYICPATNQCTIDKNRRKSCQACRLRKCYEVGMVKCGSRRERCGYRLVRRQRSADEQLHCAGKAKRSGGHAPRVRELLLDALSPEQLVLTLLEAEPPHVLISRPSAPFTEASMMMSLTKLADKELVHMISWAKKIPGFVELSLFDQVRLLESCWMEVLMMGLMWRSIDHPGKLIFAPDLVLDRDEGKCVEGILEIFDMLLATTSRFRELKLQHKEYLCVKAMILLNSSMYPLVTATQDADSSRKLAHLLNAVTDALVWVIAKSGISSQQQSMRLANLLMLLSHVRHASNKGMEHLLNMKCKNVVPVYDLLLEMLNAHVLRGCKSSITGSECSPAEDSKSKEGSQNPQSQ

On to `COc1ccc(-c2ccc(O)c(/C(C)=N/O)c2)cc1Cl`, for which the inhibition in assay [1] and in assay [2] was less than 0.005% each time.

As for `COc1ccc(-c2ccc(O)c(/C(C)=N/O)c2)cc1F`, the inhibition in assay [1] and in assay [2] was less than 0.005% each time.

Turning to `C/C(=N\O)c1cc(-c2ccc(O)c(C)c2)ccc1O`, the inhibition in assay [1] came to 0.1%; in assay [2], 1.6%.

With `CC/C(=N\O)c1cc(-c2ccc(O)cc2)ccc1O`, the inhibition in assay [1] is 3%; in assay [2], 46%.

In the case of `C/C(=N\O)c1cc(-c2ccc(Cl)cc2)ccc1O`, the inhibition is less than 0.005% in assay [1] and 0.099% in assay [2].

On to `C/C(=N\O)c1cc(-c2ccc(O)c(F)c2)ccc1O`, for which the values for the inhibition in assay [1] and in assay [2] were 0.16% and 12%, respectively. In addition, the pEC50 was 6.71 in assay [3], 7.83 in assay [4], 5.68 in assay [5] and 7.46 in assay [6].

In the case of `C/C(=N\O)c1cc(-c2ccc(O)c(Cl)c2)ccc1O`, the figures for the inhibition in assay [1] and in assay [2] were 0.033% and 1.1%, respectively.

On to `COc1ccc(-c2ccc(O)c(/C(C)=N/O)c2)cc1C`, for which the inhibition in assay [1] and in assay [2] was less than 0.005% in each case.

As for `C/C(=N\O)c1cc(-c2ccc(O)cc2)ccc1O`, the inhibition in assay [1] came out at 0.54%; in assay [2], 46%. In addition, the pEC50 in assay [3] was 7.53; in assay [4] it was 8.40; in assay [5], 7.08; in assay [6], 7.90.

In the case of `C/C(=N\O)c1cc(-c2ccc(F)cc2)ccc1O`, the inhibition in assay [1] is less than 0.005%; in assay [2] it was 0.015%.

Take `CC/C(=N\O)c1cc(-c2ccc(O)c(F)c2)ccc1O`: the inhibition amounted to 1.9% in assay [1] and 49% in assay [2].

Consider `O/N=C(/c1cc(-c2ccc(O)cc2)ccc1O)C(F)(F)F`, for which the inhibition turned out to be 0.036% in assay [1] and 0.76% in assay [2].

As to `COc1ccc(-c2ccc(O)c(/C(C)=N/O)c2)cc1`, the inhibition in assay [1] is less than 0.005%; in assay [2], 0.011%.
